Reference: ChEMBL document CHEMBL3045551, “Synthesis and Acaricidal Activity of N-(1,3,4-Thiadiazol-2-yl)cyclopropanecarboxamides” (2003)

Columns and labels:
Assay type in all cases: functional
Tetranychus urticae [1] = experiment: Acaricidal activity against Tetranychus urticae (two-spotted spider mite) assessed as mite mortality at 50 ppm relative to untreated control
Tetranychus urticae [2] = experiment: Acaricidal activity against Tetranychus urticae (two-spotted spider mite) assessed as mite mortality at 12.5 ppm relative to untreated control
Tetranychus urticae [3] = experiment: Acaricidal activity against Tetranychus urticae (two-spotted spider mite) assessed as mite mortality at 500 ppm relative to untreated control
Tetranychus urticae [4] = experiment: Acaricidal activity against Tetranychus urticae (two-spotted spider mite) assessed as mite mortality at 200 ppm relative to untreated control

Compound | mortality at 50 ppm (Tetranychus urticae [1]) | mortality at 12.5 ppm (Tetranychus urticae [2]) | mortality at 500 ppm (Tetranychus urticae [3]) | mortality at 200 ppm (Tetranychus urticae [4])
CCCC1(C(=O)Nc2nnc(C(F)(F)F)s2)CC1(Cl)Cl (stereo unspecified) | 80% | 0% | 100% | 100%
CCCCC1(C(=O)Nc2nnc(C(F)(F)F)s2)CC1(Cl)Cl (stereo unspecified) | – | – | 80% | 30%
Cc1nnc(NC(=O)C2(C)CC2(Cl)Cl)s1 (stereo unspecified) | – | – | 0% | –
CC1(C(=O)Nc2nnc(C(F)(F)F)s2)CC1 | – | – | 0% | –
CC1(C(=O)Nc2nnc(C(F)(F)C(F)(F)C(F)(F)C(F)(F)F)s2)CC1(Cl)Cl (stereo unspecified) | – | – | 0% | –
CC1(C(=O)Nc2nncs2)CC1(Cl)Cl (stereo unspecified) | – | – | 0% | –
CC1(C(=O)Nc2nnc(C(F)(F)F)s2)CC1(Br)Br (stereo unspecified) | 30% | 0% | 100% | 100%
CC1(C(=O)Nc2nnc(C(F)(F)F)s2)CC1(Cl)Cl (stereo unspecified) | 100% | 30% | 100% | 100%
CC1(C(=O)Nc2nnc(C(F)(F)C(F)(F)C(F)(F)F)s2)CC1(Cl)Cl (stereo unspecified) | 100% | 80% | 100% | 100%
CC1(C(=O)Nc2nnc(C(F)(F)C(F)(F)F)s2)CC1(Cl)Cl (stereo unspecified) | 100% | 30% | 100% | 100%
CC(C)C1(C(=O)Nc2nnc(C(F)(F)F)s2)CC1(Cl)Cl (stereo unspecified) | 30% | 30% | 80% | 80%
O=C(Nc1nnc(C(F)(F)F)s1)C1CC1(Cl)Cl (stereo unspecified) | – | – | 0% | –
CCC1(C(=O)Nc2nnc(C(F)(F)F)s2)CC1(Cl)Cl (stereo unspecified) | 100% | 0% | 100% | 100%
CCc1nnc(NC(=O)C2(C)CC2(Cl)Cl)s1 (stereo unspecified) | – | – | 0% | –
